One assay concerns the target human recombinant HDAC8 (Homo sapiens (Human), UniProt Q9BY41). The experiment in a line: fluorogenic HDAC inhibition assay, HDAC8. Format: biochemical. The following applies: IC50 converted to Ki with KM (Cheng and Prusoff); read-out: Ki HDAC-8. As to the method: Key enzyme kinetic parameters for one class I HDAC (HDAC8) and one class Ha HDAC (HDAC4) were determined using commercially available human recombinant HDAC enzymes (BPS Bioscience, San Diego, Calif.) and fluorogenic HDAC assay kits (BPS Bioscience). Kinetic parameters were determined by performing HDAC activity assays at varied concentrations of the HDAC substrate according to the manufacturer's protocol. Assay data were analyzed via non-linear regression (GraphPad Software, Inc., CA). Inhibition assays were used to determine the half maximal inhibitory concentration, IC50, for tropolone analogs in HDAC8 and […]. The potent hydroxamic acid HDAC inhibitor, Trichostatin A (TSA), provided in the assay kit, served as a control for the assays. IC50 values for the tropolone analogs were converted to inhibition constants, Ki, for each of the inhibitors using the KM value in accordance with the techniques previously described by Cheng and Prusoff.

A further assay deals with human recombinant HDAC4 (Homo sapiens, UniProt P56524). In words: fluorogenic HDAC inhibition assay, HDAC4. Format: biochemical. The conditions noted are these: IC50 converted to Ki with KM (Cheng and Prusoff); read-out: Ki HDAC-4.
human recombinant HDAC4, sequence (P56524 whole entry, looked up): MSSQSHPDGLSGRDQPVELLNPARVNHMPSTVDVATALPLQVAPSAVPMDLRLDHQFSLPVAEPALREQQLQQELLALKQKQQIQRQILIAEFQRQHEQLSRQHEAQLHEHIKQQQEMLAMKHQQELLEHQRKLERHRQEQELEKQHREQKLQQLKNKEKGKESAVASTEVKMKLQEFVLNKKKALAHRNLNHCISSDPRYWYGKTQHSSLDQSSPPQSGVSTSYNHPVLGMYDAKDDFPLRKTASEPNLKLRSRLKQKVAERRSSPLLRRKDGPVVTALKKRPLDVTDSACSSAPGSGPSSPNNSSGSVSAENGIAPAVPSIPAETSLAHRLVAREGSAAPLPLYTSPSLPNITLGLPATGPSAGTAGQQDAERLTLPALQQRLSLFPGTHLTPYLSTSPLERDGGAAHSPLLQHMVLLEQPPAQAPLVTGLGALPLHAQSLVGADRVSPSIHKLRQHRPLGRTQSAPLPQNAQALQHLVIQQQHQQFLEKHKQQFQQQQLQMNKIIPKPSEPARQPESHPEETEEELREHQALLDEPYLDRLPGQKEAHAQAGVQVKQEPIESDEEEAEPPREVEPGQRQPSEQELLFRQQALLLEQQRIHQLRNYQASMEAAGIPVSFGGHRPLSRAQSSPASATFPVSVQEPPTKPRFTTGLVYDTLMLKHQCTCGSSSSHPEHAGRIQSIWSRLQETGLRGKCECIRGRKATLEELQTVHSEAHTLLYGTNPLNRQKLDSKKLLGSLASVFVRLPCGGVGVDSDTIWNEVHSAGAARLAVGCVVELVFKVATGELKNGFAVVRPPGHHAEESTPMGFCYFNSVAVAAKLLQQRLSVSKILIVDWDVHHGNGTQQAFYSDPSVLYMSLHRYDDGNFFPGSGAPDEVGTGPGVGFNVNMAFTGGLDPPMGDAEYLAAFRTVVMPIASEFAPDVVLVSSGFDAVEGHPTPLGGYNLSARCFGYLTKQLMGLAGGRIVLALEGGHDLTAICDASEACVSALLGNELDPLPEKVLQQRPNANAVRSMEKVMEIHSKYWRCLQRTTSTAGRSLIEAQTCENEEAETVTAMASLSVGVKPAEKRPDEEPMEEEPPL
For the next assay, the system named is Jurkat cells. The experiment in a line: cell-based cytotoxicity assay (Cell Titer 96 Aqueous One), Jurkat. The following applies: 72-h exposure, absorbance at 490 nm. On the procedure:
(§1) All cell lines were purchased from ATCC (Manassas, Va.). Jurkat cells were cultured in RPMI 1640 (ATCC) supplemented with 10% fetal bovine serum (FBS; Atlanta Biologicals, Lawrenceville, Ga.). HuT-78 cells were cultured in IMDM (ATCC) supplemented with 20% FBS (Atlanta Biologicals). HT-29 and HCT116 were cultured in McCoy's media (Life Technologies, Carlsbad Calif.) supplemented with 10% FBS (Atlanta Biologicals), 1% non-essential amino acids (Mediatech Inc., Manassas, Va.) and 1% penicillin/streptomycin (Mediatech Inc).
(§2) Confluent Jurkat and HuT-78 cells were seeded in triplicate at a density of 5×10^4 cells/well whereas HT-29 and HCT116 cells were seeded in triplicate at a density of 5×10^3 cells/well in 96-well plates. Cells were treated at varying concentrations (1 μM-100 μM) of either a tropolone analog or SAHA. DMSO served as a vehicle control. After a 72-h exposure, cytotoxicity was evaluated using the Cell Titer 96 Aqueous One kit (Promega, Madison, Wis.) according to the instructions of the manufacturer. Formazan content was determined by measuring the absorbance at 490 nm on an Infinite M200 microplate reader (Tecan Group Ltd., Switzerland) and analyzed via non-linear regression analysis (GraphPad Software, Inc.).

The next assay deals with HuT-78 cells. In words: cell-based cytotoxicity assay (Cell Titer 96 Aqueous One), HuT-78. The following applies: 72-h exposure, absorbance at 490 nm. As to the method:
as §1, §2

human recombinant HDAC8, sequence (Q9BY41 whole entry): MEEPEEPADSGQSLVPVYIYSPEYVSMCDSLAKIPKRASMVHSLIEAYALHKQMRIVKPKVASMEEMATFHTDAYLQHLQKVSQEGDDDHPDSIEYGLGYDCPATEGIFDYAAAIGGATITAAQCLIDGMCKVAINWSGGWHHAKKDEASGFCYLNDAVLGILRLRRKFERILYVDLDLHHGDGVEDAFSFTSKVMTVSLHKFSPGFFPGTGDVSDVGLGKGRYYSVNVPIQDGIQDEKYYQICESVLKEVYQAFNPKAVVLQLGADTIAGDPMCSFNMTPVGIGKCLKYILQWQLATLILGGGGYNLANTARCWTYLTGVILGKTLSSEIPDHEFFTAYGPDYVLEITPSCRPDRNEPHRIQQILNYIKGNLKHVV

As a reminder, the Ki is a measure of affinity in units of concentration, obtained from inhibition or displacement. The term IC50 denotes the concentration that inhibits the measured activity by half. The low end stands for inhibition by little substance, the high end for a need for much substance. As to `COc1cccc(-c2cccc(O)c(=O)c2)c1` [Example 7], the Ki was 1.36 nM on human recombinant HDAC8 and 1.7 nM at human recombinant HDAC4. Besides, the IC50 came out at 4620 nM in the assay with Jurkat cells and 8950 nM in the assay on HuT-78 cells.

As for `O=c1cc(C2CCCC2)cccc1O` [Example 12], the inhibitory constant (Ki) at human recombinant HDAC8 was found to be 23.3 nM; on human recombinant HDAC4, 6.64 nM. The IC50 turned out to be 6300 nM with Jurkat cells and 11400 nM in the assay on HuT-78 cells.

In the case of `CC(C)c1cccc(O)c(=O)c1` [Example 9], the Ki worked out at 105 nM at human recombinant HDAC8 and 3.32 nM at human recombinant HDAC4. The values for the IC50 in the assay on Jurkat cells and in the assay with HuT-78 cells were 1100 nM and 4990 nM, respectively.

Take `COc1ccc(-c2ccccc(O)c2=O)c(OC)c1OC` [Example 5]: the figures for the Ki at human recombinant HDAC8 and on human recombinant HDAC4 were 0.04 nM and 59 nM, respectively. Also, the IC50 turned out to be 1860 nM in the assay with Jurkat cells (Homo sapiens, Jurkat) and 4740 nM in the assay on HuT-78 cells (Homo sapiens, HuT78).

On to `O=c1cccc(-c2ccccc2)cc1O` [Example 6], for which the Ki at human recombinant HDAC8 stood at 19.4 nM; at human recombinant HDAC4, 72.8 nM. For the same molecule, the IC50 in the assay on Jurkat cells was determined as 670 nM; in the assay on HuT-78 cells, 4140 nM.

With `CC(C)(C)c1cccc(O)c(=O)c1` [Example 10], the Ki at human recombinant HDAC8 came out at 2.69 nM; on human recombinant HDAC4 it was 489 nM. The IC50 worked out at 4450 nM in the assay on Jurkat cells and 13100 nM in the assay with HuT-78 cells.

Take `COc1ccc(OC)c(-c2ccccc(O)c2=O)c1` [Example 4]: the Ki on human recombinant HDAC8 was found to be 0.44 nM; on human recombinant HDAC4, 184 nM. Besides, the half-maximal inhibitory concentration (IC50) was 750 nM in the assay on Jurkat cells (Homo sapiens, Jurkat) and 3050 nM with HuT-78 cells (Homo sapiens, HuT78).

For `COc1ccc(-c2ccccc(O)c2=O)cc1` [Example 3], the Ki on human recombinant HDAC8 came to 0.14 nM; on human recombinant HDAC4 it was 2.74 nM. Further, the IC50 in the assay on Jurkat cells (Homo sapiens, Jurkat) was 620 nM; in the assay with HuT-78 cells (Homo sapiens, HuT78), 2870 nM.

In the case of `O=c1c(O)ccccc1-c1ccc2ccccc2c1` [Example 2], the inhibition constant Ki on human recombinant HDAC8 came to 7.63 nM; on human recombinant HDAC4, 0.54 nM.

As for `COc1ccc(OC)c(-c2cccc(O)c(=O)c2)c1` [Example 8], the Ki on human recombinant HDAC8 turned out to be 1.42 nM; on human recombinant HDAC4, 541 nM. The IC50 in the assay on Jurkat cells worked out at 5880 nM; in the assay with HuT-78 cells, 17100 nM.

For the molecule `O=c1c(O)ccccc1-c1ccccc1` [Example 1], the Ki at human recombinant HDAC8 was 0.17 nM; at human recombinant HDAC4, 0.08 nM. The IC50 in the assay with Jurkat cells (Homo sapiens, Jurkat) was determined as 3330 nM; in the assay with HuT-78 cells (Homo sapiens, HuT78), 7830 nM.

On to `CCC(C)c1cccc(O)c(=O)c1` (stereo not shown) [Example 11], for which the figures for the inhibition constant Ki at human recombinant HDAC8 and on human recombinant HDAC4 were 10.1 nM and 94.5 nM, respectively. For the same molecule, the figures for the IC50 with Jurkat cells and in the assay on HuT-78 cells were 590 nM and 3250 nM, respectively.
